Experimental findings from patent US20140120060A1, “TREATMENT OF RHEUMATOID ARTHRITIS AND ASTHMA USING PI3 KINASE INHIBITORS” (INFINITY PHARMACEUTICALS, INC., priority 2012, published 2014) are described below.

pEC50: −log10 of the molar value. A value given as a limit tells only on which side of the number the result lay.

This assay concerns B cell. Briefly: B cell proliferation. The class given is cell-based.
Regarding `Cc1cccc2cc(Cn3nc(-c4ccc5nc(N)oc5c4)c4c(N)ncnc43)n(-c3ccccc3)c(=O)c12` [Compound 235], the pEC50 (usually the negative decadic logarithm of the EC50, by convention in mol/L) is more than 5.00.

In turn, `CC(=O)Nc1nc2ccc(-c3nn(Cc4cc5cccc(C)c5c(=O)n4C(C)C)c4ncnc(N)c34)cc2s1` [Compound 154] had a pEC50 of more than 7.00.

`COc1ccc(-c2nn(Cc3cc4cccc(C)c4c(=O)n3-c3ccccc3F)c3ncnc(N)c23)cc1OC` [Compound 47]: the pEC50 is more than 6.00.

`Cc1ccccc1-n1c(Cn2nc(C#C[C@@H](C)O)c3c(N)ncnc32)cc2ccccc2c1=O` [Compound 32] gave a pEC50 of more than 6.00.

For the compound `Cc1cccc2cc([C@H](C)Nc3ncnc4[nH]cnc34)n(-c3cccc(F)c3)c(=O)c12` [Compound 290], the pEC50 is more than 7.00.

Consider `Cc1cccc2cc(Cn3nc(-c4cccc(O)c4)c4c(N)ncnc43)n(-c3ccccc3O)c(=O)c12` [Compound 81], for which the pEC50 is more than 7.00.

The compound `CC(=O)Nc1nc2ccc(-c3nn(Cc4cc5cccc(Cl)c5c(=O)n4C4CC4)c4ncnc(N)c34)cc2s1` [Compound 156] gave a pEC50 of more than 7.00.

Compound `Cc1cccc2cc(Cn3nc(Cl)c4c(N)ncnc43)n(-c3ccccc3F)c(=O)c12` [Compound 34] gave a pEC50 of more than 6.00.

`Cc1ccccc1-n1c(Cn2nc(-c3ccc4cc[nH]c4c3)c3c(N)ncnc32)cc2cccc(C)c2c1=O` [Compound 50] showed a pEC50 of more than 6.00.

`Cc1cccc2cc(Cn3nc(-c4cc(O)cc(F)c4)c4c(N)ncnc43)n(-c3ccccc3F)c(=O)c12` [Compound 3] had a pEC50 of more than 7.00.

Compound `Cc1cccc2cc(C(C)Nc3ncnc4[nH]cnc34)n(-c3ccc(F)cc3)c(=O)c12` (stereo not shown) [Compound 213] gave a pEC50 of more than 7.00.

`Cc1cccc2cc(Cn3nc(I)c4c(N)ncnc43)n(C3CCCC3)c(=O)c12` [Compound 57]: the negative-log EC50 (pEC50) is more than 5.00.

Regarding `CC(=O)Nc1nc2ccc(-c3nn(Cc4cc5cccc(C)c5c(=O)n4-c4ccccc4C)c4ncnc(N)c34)cc2[nH]1` [Compound 296], the pEC50 was more than 7.00.

In the case of `Cc1cccc2cc(Cn3nc(I)c4c(N)ncnc43)n(C3CC3)c(=O)c12` [Compound 86], the pEC50 is more than 6.00.

`Cc1cccc2cc(Cn3nc(I)c4c(N)ncnc43)n(C)c(=O)c12` [Compound 107] showed a pEC50 of more than 6.00.

Consider `Cc1ccccc1-n1c(Cn2nc(C#C[C@@H](C)O)c3c(N)ncnc32)cc2cccc(C)c2c1=O` [Compound 37], for which the pEC50 was more than 7.00.

As to `Cc1cccc2cc(Cn3nc(I)c4c(N)ncnc43)n(-c3ccccc3Cl)c(=O)c12` [Compound 76], the pEC50 is more than 6.00.

Take `Cc1cccc2cc(Cn3nc(I)c4c(N)ncnc43)n(-c3ccccc3O)c(=O)c12` [Compound 79]: the pEC50 was more than 6.00.

Compound `Cc1cccc2cc([C@H](C)Nc3ncnc4[nH]ccc34)n(-c3ccccc3)c(=O)c12` [Compound 247] had a pEC50 of more than 7.00.

Take `Cc1ccccc1-n1c(Cn2nc(-c3ccc4nc(N)ccc4c3)c3c(N)ncnc32)cc2cccc(C)c2c1=O` [Compound 149]: the pEC50 is more than 7.00.

In turn, `Cc1cccc2cc([C@H](C)Nc3nc(Cl)ncc3Cl)n(-c3ccccc3)c(=O)c12` [Compound 248] had a negative logarithm of the EC50 (pEC50) of more than 7.00.

Regarding `Cc1cccc2cc(Cn3nc(C#CC4CC4)c4c(N)ncnc43)n(-c3ccccc3F)c(=O)c12` [Compound 4], the pEC50 was more than 6.00.

In turn, `Cc1cccc2cc(Cn3nc(C#C[C@@H](C)O)c4c(N)ncnc43)n(-c3ccccc3C(C)C)c(=O)c12` [Compound 83] showed a pEC50 of more than 7.00.

For the compound `Cc1cccc2cc(Cn3nc(C#C[C@@H](C)O)c4c(N)ncnc43)n(-c3ccccc3O)c(=O)c12` [Compound 91], the pEC50 is more than 6.00.

Compound `Cc1cccc2cc(Cn3nc(-c4cccc(O)c4)c4c(N)ncnc43)n(-c3ccccc3C(C)C)c(=O)c12` [Compound 82] had a pEC50 of more than 7.00.

`Cc1cccc2cc(Cn3nc(/C=C4/SC(=O)NC4=O)c4c(N)ncnc43)n(-c3ccccc3F)c(=O)c12` [Compound 171]: the pEC50 was more than 7.00.

`Cc1cccc2cc(Cn3nc(-c4cn[nH]c4)c4c(N)ncnc43)n(-c3ccccc3C(F)(F)F)c(=O)c12` [Compound 214] showed a pEC50 of more than 7.00.

In turn, `Cc1ccccc1-n1c(Cn2nc(-c3ccc4sc(N)nc4c3)c3c(N)ncnc32)cc2cccc(C)c2c1=O` [Compound 276] had a pEC50 of more than 7.00.

Compound `Cc1cccc2cc(Cn3nc(C#CCO)c4c(N)ncnc43)n(-c3ccccc3F)c(=O)c12` [Compound 8] had a pEC50 of more than 6.00.

The compound `Cc1cccnc1-n1c(Cn2nc(-c3ccc(Cl)c(O)c3)c3c(N)ncnc32)cc2cccc(C)c2c1=O` [Compound 72] had a pEC50 of more than 7.00.

Consider `Cc1ccccc1-n1c(Cn2nc(-c3ccc(O)c(F)c3)c3c(N)ncnc32)cc2cccc(C)c2c1=O` [Compound 30], for which the pEC50 was more than 6.00.

For `Cc1ccccc1-n1c(Cn2nc(C(N)=O)c3c(N)ncnc32)cc2cccc(C)c2c1=O` [Compound 298], the pEC50 was more than 7.00.

In turn, `Cc1cccc2cc(Cn3nc(CF)c4c(N)ncnc43)n(-c3ccccc3)c(=O)c12` [Compound 311] showed a pEC50 of more than 7.00.

For the compound `Cc1ccccc1-n1c(Cn2nc(-c3cnc4[nH]ccc4c3)c3c(N)ncnc32)cc2cccc(C)c2c1=O` [Compound 48], the pEC50 is more than 7.00.

`Cc1cccc2cc(Cn3nc(-c4cc(O)cc(F)c4)c4c(N)ncnc43)n(C3CCCCC3)c(=O)c12` [Compound 110] had a pEC50 of more than 6.00.

`C=Cc1nn(Cc2cc3cccc(C)c3c(=O)n2-c2ccccc2C)c2ncnc(N)c12` [Compound 180] gave a pEC50 of more than 7.00.

`Cc1cccc2cc(Cn3nc(-c4cn[nH]c4)c4c(N)ncnc43)n(-c3ccccc3Cl)c(=O)c12` [Compound 188] gave a pEC50 of more than 7.00.

In turn, `Cc1ccccc1-n1c(Cn2nc(-c3ccc(F)c(O)c3)c3c(N)ncnc32)cc2ccccc2c1=O` [Compound 54] showed a pEC50 of more than 7.00.

Compound `CC(=O)Nc1nc2ccc(-c3nn(Cc4cc5cccc(C)c5c(=O)n4C4CC4)c4ncnc(N)c34)cc2s1` [Compound 155] had a pEC50 of more than 7.00.

`CCC(Nc1ncnc2[nH]cnc12)c1cc2ccccc2c(=O)n1-c1ccccc1` (stereo not shown) [Compound 221] had a pEC50 of more than 7.00.

Compound `CCC(Nc1ncnc2[nH]cnc12)c1cc2cccc(C)c2c(=O)n1-c1ccc(F)cc1` (stereo not shown) [Compound 223] gave a pEC50 of more than 7.00.

The compound `Cc1ccccc1-n1c(Cn2nc(-c3ccc(O)cc3)c3c(N)ncnc32)cc2cccc(C)c2c1=O` [Compound 36] had a negative-log EC50 (pEC50) of more than 6.00.

As to `Cc1ccccc1-n1c(Cn2nc(-c3cn[nH]c3)c3c(N)ncnc32)cc2cccc(C)c2c1=O` [Compound 160], the pEC50 is more than 7.00.

As for `Cc1cccc2cc([C@H](C)Nc3ncnc4[nH]cnc34)n(C3CC3)c(=O)c12` [Compound 200], the pEC50 was more than 7.00.

Compound `Cc1cccnc1-n1c(Cn2nc(-c3ccc(F)c(O)c3)c3c(N)ncnc32)cc2cccc(C)c2c1=O` [Compound 68] gave a pEC50 of more than 7.00.

The compound `CCC(Nc1ncnc2[nH]cnc12)c1cc2cccc(C)c2c(=O)n1-c1ccccc1` (stereo not shown) [Compound 211] showed a pEC50 of more than 7.00.

For the compound `Cc1cccc2cc(Cn3nc(I)c4c(N)ncnc43)n(-c3ccccc3OCCN3CCOCC3)c(=O)c12` [Compound 103], the pEC50 was more than 6.00.

In the case of `Cc1cccc2cc(Cn3nc(I)c4c(N)ncnc43)n(C3CCC3)c(=O)c12` [Compound 105], the pEC50 was more than 6.00.

With `Cc1cccc2cc(Cn3nc(-c4ccc(F)c(O)c4)c4c(N)ncnc43)n(-c3ccccc3F)c(=O)c12` [Compound 9], the pEC50 was more than 6.00.
